Like-named read-outs stand apart in the source and are kept apart here.
Assays:
cdk4/D = cdk4/D (Homo sapiens, UniProt P11802); experiment: Cyclin-Dependent Kinase 4 (cdk4) Assay; format: biochemical; conditions: read-out: cdk4/D IC50
Cdk5/p25 = Cdk5/p25 (Homo sapiens, UniProt Q00535); experiment: Cyclin-Dependent Kinase 5 High Throughput Screening (cdk5-HTS) Assay; format: biochemical; conditions: high throughput screen
Method in brief: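 Cdk5/p25 (1.0 μg/mL) phosphorylates GST-RbCOOH (20 μg/mL) in 50 mM Tris pH 7.4 with 10 mM MgCl2 and 20 μM ATP spiked with [γ33P]ATP, 30 min at room temperature. After EDTA stop, substrate captured on glutathione-coated plates; 33P incorporation counted by scintillation; IC50 determined.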

cdk2/cyclinE = cdk2/cyclinE (Homo sapiens, UniProt P24941); experiment: Cyclin-Dependent Kinase Assay cdk2/cyclinE
cdk2/cyclinA = cdk2/cyclinA (Homo sapiens, UniProt P24941); experiment: Cyclin-Dependent Kinase Assay cdk2/cyclinA
cdc2/cyclinB = cdc2/cyclinB (Homo sapiens, UniProt P06493); experiment: Cyclin-Dependent Kinase Assay cdc2/cyclinB
Chain of cdc2/cyclinB (P06493 whole entry): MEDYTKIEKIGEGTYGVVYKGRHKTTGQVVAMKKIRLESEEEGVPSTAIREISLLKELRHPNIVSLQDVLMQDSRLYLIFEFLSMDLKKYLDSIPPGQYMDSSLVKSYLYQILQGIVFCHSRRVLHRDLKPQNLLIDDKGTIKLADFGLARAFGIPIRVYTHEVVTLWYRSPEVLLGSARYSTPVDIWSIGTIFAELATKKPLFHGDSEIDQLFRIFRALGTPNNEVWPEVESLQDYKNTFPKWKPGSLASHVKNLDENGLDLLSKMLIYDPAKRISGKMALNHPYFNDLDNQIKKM
Chain of cdc2/cyclinB (P14635 whole entry, further chain): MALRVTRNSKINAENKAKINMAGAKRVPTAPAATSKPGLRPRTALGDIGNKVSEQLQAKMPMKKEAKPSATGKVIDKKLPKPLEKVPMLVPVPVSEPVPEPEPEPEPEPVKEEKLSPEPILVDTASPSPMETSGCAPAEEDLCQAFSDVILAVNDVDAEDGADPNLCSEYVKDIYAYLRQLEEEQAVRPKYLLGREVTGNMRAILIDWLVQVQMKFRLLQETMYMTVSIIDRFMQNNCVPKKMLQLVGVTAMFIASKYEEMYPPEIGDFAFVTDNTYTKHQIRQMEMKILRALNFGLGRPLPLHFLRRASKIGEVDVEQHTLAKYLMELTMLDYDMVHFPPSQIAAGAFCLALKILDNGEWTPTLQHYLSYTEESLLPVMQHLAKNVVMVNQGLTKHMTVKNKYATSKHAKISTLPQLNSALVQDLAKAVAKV

Chain of cdk4/D (P11802 whole entry): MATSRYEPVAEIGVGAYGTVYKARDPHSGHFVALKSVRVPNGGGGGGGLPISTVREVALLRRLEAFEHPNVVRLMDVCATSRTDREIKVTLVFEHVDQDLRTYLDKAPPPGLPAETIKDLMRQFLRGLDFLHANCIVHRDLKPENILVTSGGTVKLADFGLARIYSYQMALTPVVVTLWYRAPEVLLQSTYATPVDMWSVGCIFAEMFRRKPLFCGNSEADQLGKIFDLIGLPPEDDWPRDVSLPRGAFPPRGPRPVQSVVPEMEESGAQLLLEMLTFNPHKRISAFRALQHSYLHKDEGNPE
Chain of cdk4/D (P24385 whole entry, further chain): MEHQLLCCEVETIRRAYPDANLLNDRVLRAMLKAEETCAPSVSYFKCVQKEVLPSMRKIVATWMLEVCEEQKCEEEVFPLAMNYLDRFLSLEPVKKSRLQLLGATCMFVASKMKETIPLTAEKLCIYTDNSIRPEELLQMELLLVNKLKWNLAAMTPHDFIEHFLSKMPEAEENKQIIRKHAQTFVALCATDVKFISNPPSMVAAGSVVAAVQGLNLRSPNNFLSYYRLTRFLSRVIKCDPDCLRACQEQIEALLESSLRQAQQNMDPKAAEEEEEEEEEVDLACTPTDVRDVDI

IC50 (cdk4/D) [nM] | IC50 (Cdk5/p25) [nM] | IC50 (cdk2/cyclinE; cdk2/E IC50) [nM] | IC50 (cdk2/cyclinA; cdk2/A IC50) [nM] | IC50 (cdc2/cyclinB) [nM] | Molecule | IC50 (cdk2/cyclinE; read-out: cdk2/E IC50) [nM] | IC50 (cdk2/cyclinA; read-out: cdk2/A IC50) [nM] | IC50 (cdc2/cyclinB; read-out: cdk1/B IC50) [nM]
920 | 14 | 50 | 310 | 63 | CCCCn1c(=O)ccc2cnc(Nc3cc(C)cc(C)c3)nc21 [Example 399, 8-Butyl-2-(3,5-dimethyl-phenylamino)-8H-pyrido[2,3-d]pyrimidin-7-one] |  |  | 
180 | 9.7 | 11 | 34 | 45 | CCCCn1c(=O)ccc2cnc(Nc3ccc(S(N)(=O)=O)cc3)nc21 [Example 393, 4-(8-Butyl-7-oxo-7,8-dihydro-pyrido[2,3-d]pyrimidin-2-ylamino)-benzenesulfonamide] |  |  | 
965 | 295 | 1060 | 1250 | 485 | CCn1c(=O)ccc2cnc(Nc3ccc(NC(=O)OC(C)(C)C)cc3)nc21 [Example 288, [4-(8-Ethyl-7-oxo-7,8-dihydro-pyrido[2,3-d]pyrimidin-2-ylamino)-phenyl]-carbamic acid tert-butyl ester] |  |  | 
420 | 92 | 280 | 890 | 520 | CCCn1c(=O)ccc2cnc(Nc3ccc(Br)c(Cl)c3)nc21 [Example 341, 2-(4-Bromo-3-chloro-phenylamino)-8-propyl-8H-pyrido[2,3-d]pyrimidin-7-one] |  |  | 
2900 | 980 | 1600 | 1500 | 2200 | CCn1c(=O)ccc2cnc(Nc3ccc(C#N)cc3)nc21 [Example 304, 4-(8-Ethyl-7-oxo-7,8-dihydro-pyrido[2,3-d]pyrimidin-2-ylamino)-benzonitrile] |  |  | 
150 | 60 | 390 | 420 | 540 | CC(=O)N(C)c1ccc(Nc2ncc3ccc(=O)n(C(C)C)c3n2)cc1 [Example 432, N-[4-(8-Isopropyl-7-oxo-7,8-dihydro-pyrido[2,3-d]pyrimidin-2-ylamino)-phenyl]-N-methyl-acetamide] |  |  | 
430 | 69.1 | 289 | 1280 | 216 | CCCn1c(=O)ccc2cnc(Nc3ccc(C)c(C)c3)nc21 [Example 318, 2-(3,4-Dimethyl-phenylamino)-8-propyl-8H-pyrido[2,3-d]pyrimidin-7-one] |  |  | 
3400 | 170 | 590 | 870 | 880 | COc1cc(Nc2ncc3ccc(=O)n(C(C)C)c3n2)cc(OC)c1OC [Example 417, 8-Isopropyl-2-(3,4,5-trimethoxy-phenylamino)-8H-pyrido[2,3-d]pyrimidin-7-one] |  |  | 
124 | 86 | 163 | 600 | 145 | CCC(CC)n1c(=O)ccc2cnc(Nc3ccc4[nH]ccc4c3)nc21 [Example 492, 8-(1-Ethyl-propyl)-2-(1H-indol-5-ylamino)-8H-pyrido[2,3-d]pyrimidin-7-one] |  |  | 
1140 | 917 | 1280 | 610 | 808 | CCCCn1c(=O)ccc2cnc(Nc3ccc(N(C)C(C)=O)cc3)nc21 [Example 370, N-[4-(8-Butyl-7-oxo-7,8-dihydro-pyrido[2,3-d]pyrimidin-2-ylamino)-phenyl]-N-methyl-acetamide] |  |  | 
65 | 8.8 | 5.1 | 15 | 29 | NS(=O)(=O)c1ccc(Nc2ncc3ccc(=O)n(CC4CC4)c3n2)cc1 [Example 571, 4-(8-Cyclopropylmethyl-7-oxo-7,8-dihydro-pyrido[2,3-d]pyrimidin-2-ylamino)-benzenesulfonamide] |  |  | 
2240 | 124 | 494 | 1980 | 446 | CCC(CC)n1c(=O)ccc2cnc(Nc3ccc(Br)c(C(F)(F)F)c3)nc21 [Example 488, 2-(4-Bromo-3-trifluoromethyl-phenylamino)-8-(1-ethyl-propyl)-8H-pyrido[2,3-d]pyrimidin-7-one] |  |  | 
120 | 190 | 84 | 530 | 430 | O=c1ccc2cnc(Nc3cc([N+](=O)[O-])ccc3F)nc2n1CC1CC1 [Example 572, 8-Cyclopropylmethyl-2-(2-fluoro-5-nitro-phenylamino)-8H-pyrido[2,3-d]pyrimidin-7-one] |  |  | 
58 | 35 | 120 | 580 | 140 | CCCn1c(=O)ccc2cnc(Nc3ccc(C)c(Cl)c3)nc21 [Example 347, 2-(3-Chloro-4-methyl-phenylamino)-8-propyl-8H-pyrido[2,3-d]pyrimidin-7-one] |  |  | 
415 | 63 | 36.3 | 152 | 101 | COc1ccc(Nc2ncc3ccc(=O)n(C4CCCCC4)c3n2)cc1OC [Example 613, 8-Cyclohexyl-2-(3,4-dimethoxy-phenylamino)-8H-pyrido[2,3-d]pyrimidin-7-one] |  |  | 
1390 | 64 | 415 | 1340 | 555 | O=c1ccc2cnc(Nc3ccc(Cl)c(C(F)(F)F)c3)nc2n1C1CCCC1 [Example 546, 2-(4-Chloro-3-trifluoromethyl-phenylamino)-8-cyclopentyl-8H-pyrido[2,3-d]pyrimidin-7-one] |  |  | 
1650 | 375 | 451 | 2640 | 669 | CCCn1c(=O)ccc2cnc(Nc3ccc([N+](=O)[O-])cc3F)nc21 [Example 320, 2-(2-Fluoro-4-nitro-phenylamino)-8-propyl-8H-pyrido[2,3-d]pyrimidin-7-one] |  |  | 
150 | 66 | 140 | 330 | 250 | O=c1ccc2cnc(Nc3ccc(C(F)(F)F)cc3)nc2n1C1CCCC1 [Example 533, 8-Cyclopentyl-2-(4-trifluoromethyl-phenylamino)-81H-pyrido[2,3-d]pyrimidin-7-one] |  |  | 
44.5 | 19 | 60.7 | 145 | 89.5 | CCC(C)n1c(=O)ccc2cnc(Nc3ccc4[nH]ccc4c3)nc21 (centres unmarked) [Example 447, 8-sec-Butyl-2-(1H-indol-5-ylamino)-8H-pyrido[2,3-d]pyrimidin-7-one] |  |  | 
310 | 190 | 110 | 200 | 510 | O=c1ccc2cnc(Nc3ccc(O)c(CN4CCOCC4)c3)nc2n1C1CCCC1 [Example 550, 8-Cyclopentyl-2-(4-hydroxy-3-morpholin-4-ylmethyl-phenylamino)-8H-pyrido[2,3-d]pyrimidin-7-one] |  |  | 
2000 | 290 | 450 | 650 | 620 | CCC(CC)n1c(=O)ccc2cnc(Nc3ccc(O)c(C(=O)O)c3)nc21 [Example 524, 5-[8-(1-Ethyl-propyl)-7-oxo-7,8-dihydro-pyrido[2,3-d]pyrimidin-2-ylamino]-2-hydroxy-benzoic acid] |  |  | 
230 | 92 | 110 | 120 | 120 | O=c1[nH]c2ccc(Nc3ncc4ccc(=O)n(CC5CC5)c4n3)cc2[nH]1 [Example 577, 8-Cyclopropylmethyl-2-(2-oxo-2,3-dihydro-1H-benzimidazol-5-ylamino)-8H-pyrido[2,3-d]pyrimidin-7-one] |  |  | 
330 | 37 | 52.7 | 105 | 51.5 | CCC(C)n1c(=O)ccc2cnc(Nc3cccc([N+](=O)[O-])c3)nc21 (centres unmarked) [Example 453, 8-sec-Butyl-2-(3-nitro-phenylamino)-8H-pyrido[2,3-d]pyrimidin-7-one] |  |  | 
262 | 21.5 | 68.3 | 115 | 59.5 | CCC(C)n1c(=O)ccc2cnc(Nc3ccc(OC)c(OC)c3)nc21 (centres unmarked) [Example 454, 8-sec-Butyl-2-(3,4-dimethoxy-phenylamino)-8H-pyrido[2,3-d]pyrimidin-7-one] |  |  | 
370 | 52 | 200 | 150 | 250 | CCC(C)n1c(=O)ccc2cnc(Nc3cc(F)cc(F)c3)nc21 (centres unmarked) [Example 472, 8-sec-Butyl-2-(3,5-difluoro-phenylamino)-8H-pyrido[2,3-d]pyrimidin-7-one] |  |  | 

Molecule | IC50 (cdk4/D) [nM] | IC50 (Cdk5/p25) [nM] | IC50 (cdk2/cyclinE; cdk2/E IC50) [nM] | IC50 (cdk2/cyclinA; cdk2/A IC50) [nM] | IC50 (cdc2/cyclinB) [nM] | IC50 (cdk2/cyclinE; read-out: cdk2/E IC50) [nM] | IC50 (cdk2/cyclinA; read-out: cdk2/A IC50) [nM] | IC50 (cdc2/cyclinB; read-out: cdk1/B IC50) [nM]
2-(4-Bromo-3-trifluoromethyl-phenylamino)-8-cyclopentyl-8H-pyrido[2,3-d]pyrimidin-7-one [Example 561] | 480 | 440 |  |  |  | 150 | 220 | 350
8-Cyclopropylmethyl-2-(1H-indazol-6-ylamino)-8H-pyrido[2,3-d]pyrimidin-7-one [Example 583] | 1300 | 105 |  |  |  | 200 | 260 | 355
[4-(7-Oxo-8-propyl-7,8-dihydro-pyrido[2,3-d]pyrimidin-2-ylamino)-phenyl]-carbamic acid tert-butyl ester [Example 326] | 2100 | 460 |  |  |  | 820 | 2450 | 995
